Converted amounts (≈) assume the structure as drawn. Where two headings read alike, the source gives them in different places.
Legend:
Format in all cases: cell-based
[1] = tested on: spores of ATCC BBA1870 strain; assay: Inhibition of germination of C. difficile spores (MIC), strain ATCC BBA1870; conditions: Clostridioides difficile, ATCCBBA1870STRAIN, 1 h, read-out: MIC (minimum concentration that completely inhibits spore germination)
Method: (§1) According to a method disclosed in “The Journal of Infectious Diseases. 2013; 207: 1498-504”, spores of ATCC BBA1870, ATCC 43255 and ATCC 630 strains were obtained by culture and purification, and stored at 4° C.
(§2) Spore preparation: the C. difficile spores stored at 4° C. were heat-activated for 30 min at 65° C., centrifuged at 9,400 g for 2 min, and washed three times to remove any self-germinating spores.
(§3) Control drug: three cholic acid derivatives, a compound CamSA, a compound 20β (prepared by the method of “Journal of Medicinal Chemistry. 2017, 60 (8): 3451-3471”), and a compound 12a (prepared by the method of “Journal of Medicinal Chemistry. 2018, 61, 6759-6778”), were used as control drugs.
(§4) Compound preparation: the compound of the present disclosure, and the positive control drugs CamSA, 20β, and 12a were dissolved in DMSO, to prepare a stock solution with a concentration of 10 mM (prepared for immediate use).
(§5) The detection was conducted in a 96-well cell culture plate at a constant temperature of 37° C.; a final volume of each well of the 96-well plate was […] and a buffer was the BHIS medium; 150 μl of spores and drugs were added to the well in advance, and 50 μl of 4 mg/ml sodium taurocholate was added; OD580 was detected every 1 min immediately using a microplate reader, for continuously 60 min. A germination agent control group and a non-germination group were set up; after the detection, a final OD value of each well was compared with an initial value, and compared with the germination agent group to calculate a germination rate and an inhibition rate. A formula for the germination rate was:
(§6) Inhibition rate=100%−germination rate.

[2] = tested on: spores of ATCC 43255 strain; assay: Inhibition of germination of C. difficile spores (MIC), strain ATCC 43255; conditions: Clostridioides difficile, ATCC43255, 1 h, read-out: MIC (minimum concentration that completely inhibits spore germination)
Method: as §1, §2, §3, §4, §5, §6

[3] = tested on: spores of ATCC 630 strain; assay: Inhibition of germination of C. difficile spores (MIC), strain ATCC 630; conditions: Clostridioides difficile, ATCC630, 1 h, read-out: MIC (minimum concentration that completely inhibits spore germination)
Method: as §1, §2, §3, §4, §5, §6

[4] = strain 1870, sodium taurocholate as germinant, BHIS medium, 37° C., OD580 for 60 min
[5] = strain 43255, sodium taurocholate as germinant, BHIS medium, 37° C., OD580 for 60 min
[6] = strain 630, sodium taurocholate as germinant, BHIS medium, 37° C., OD580 for 60 min

Compound | MIC [1, 4] [µM] | MIC [2, 5] [µM] | MIC [3, 6] [µM] | MIC [1] [µM] | MIC [2] [µM] | MIC [3] [µM]
CC(C)[C@@H](NC(=O)C[C@@H](C)[C@H]1CC[C@H]2[C@@H]3[C@H](O)C[C@@H]4C[C@H](O)CC[C@]4(C)[C@H]3C[C@H](O)[C@]12C)c1ccc(Cl)s1 [Compound I-146] | 16 (≈ 9.06 µg/mL) | 16 (≈ 9.06 µg/mL) | 16 (≈ 9.06 µg/mL) | – | – | –
C[C@H](CC(=O)NCc1cccs1)[C@H]1CC[C@H]2[C@@H]3C(=O)C[C@@H]4C[C@H](O)CC[C@]4(C)[C@H]3CC[C@]12C [Compound I-14] | 4 (≈ 1.89 µg/mL) | 4 (≈ 1.89 µg/mL) | 4 (≈ 1.89 µg/mL) | – | – | –
CC(C)C(NC(=O)C[C@@H](C)[C@H]1CC[C@H]2[C@@H]3[C@H](OS(=O)(=O)O)C[C@@H]4CC(=O)CC[C@]4(C)[C@H]3CC[C@]12C)c1ccc(Br)s1 (stereo partly drawn) [Compound I-113] | 1 (≈ 0.673 µg/mL) | 0.5 (≈ 0.336 µg/mL) | 1 (≈ 0.673 µg/mL) | – | – | –
CC[C@@H](NC(=O)C[C@@H](C)[C@H]1CC[C@H]2[C@@H]3[C@H](O)C[C@@H]4CC(=O)CC[C@]4(C)[C@H]3CC[C@]12C)c1ccc(Br)s1 [Compound I-91] | 0.25 (≈ 0.145 µg/mL) | 0.25 (≈ 0.145 µg/mL) | 0.25 (≈ 0.145 µg/mL) | – | – | –
CC(C)[C@H](NC(=O)C[C@@H](C)[C@H]1CC[C@H]2[C@@H]3[C@H](OS(=O)(=O)O)C[C@@H]4CC(=O)CC[C@]4(C)[C@H]3CC[C@]12C)c1ccc(Cl)s1 [Compound I-111] | > 256 | > 256 | > 256 | – | – | –
C[C@H](CC(=O)NC(c1cccs1)c1cccs1)[C@H]1CC[C@H]2[C@@H]3C(=O)C[C@@H]4CC(=O)CC[C@]4(C)[C@H]3CC[C@]12C [Compound I-56] | 16 (≈ 8.83 µg/mL) | 16 (≈ 8.83 µg/mL) | 16 (≈ 8.83 µg/mL) | – | – | –
CC[C@@H](NC(=O)C[C@@H](C)[C@H]1CC[C@H]2[C@@H]3C(=O)C[C@@H]4CC(=O)CC[C@]4(C)[C@H]3CC[C@]12C)c1ccc(S(=O)(=O)O)s1 [Compound I-74] | 16 (≈ 9.24 µg/mL) | 16 (≈ 9.24 µg/mL) | 16 (≈ 9.24 µg/mL) | – | – | –
CC[C@@H](NC(=O)C[C@@H](C)[C@H]1CC[C@H]2[C@@H]3C(=O)CC4=CC(=O)CC[C@]4(C)[C@H]3CC[C@]12C)c1ccc(Br)s1 [Compound I-151] | 0.5 (≈ 0.287 µg/mL) | 1 (≈ 0.575 µg/mL) | 0.5 (≈ 0.287 µg/mL) | – | – | –
C[C@H](CC(=O)NC(c1cccs1)C1CC1)[C@H]1CC[C@H]2[C@@H]3[C@H](O)C[C@@H]4CC(=O)CC[C@]4(C)[C@H]3CC[C@]12C (stereo partly drawn) [Compound I-85] | 0.5 (≈ 0.256 µg/mL) | 0.5 (≈ 0.256 µg/mL) | 0.5 (≈ 0.256 µg/mL) | – | – | –
CC(C)[C@@H](NC(=O)C[C@@H](C)[C@H]1CC[C@H]2[C@@H]3[C@H](OS(=O)(=O)O)C[C@@H]4CC(=O)CC[C@]4(C)[C@H]3CC[C@]12C)c1ccc(Cl)s1 [Compound I-112] | 0.5 (≈ 0.314 µg/mL) | 0.25 (≈ 0.157 µg/mL) | 0.5 (≈ 0.314 µg/mL) | – | – | –
CC[C@@H](NC(=O)C[C@@H](C)[C@H]1CC[C@H]2[C@@H]3[C@H](OC(=O)CCCCCCC(=O)O)C[C@@H]4CC(=O)CC[C@]4(C)[C@H]3CC[C@]12C)c1ccc(Cl)s1 [Compound I-187] | 0.125 (≈ 0.0863 µg/mL) | 0.125 (≈ 0.0863 µg/mL) | 0.125 (≈ 0.0863 µg/mL) | – | – | –
CC[C@@H](NC(=O)C[C@@H](C)[C@H]1CC[C@H]2[C@@H]3[C@H](OC(=O)CCC(=O)O)C[C@@H]4CC(=O)CC[C@]4(C)[C@H]3CC[C@]12C)c1ccc(Br)s1 [Compound I-180] | 2 (≈ 1.36 µg/mL) | 2 (≈ 1.36 µg/mL) | 1 (≈ 0.679 µg/mL) | – | – | –
CC(C)[C@H](NC(=O)C[C@@H](C)[C@H]1CC[C@H]2[C@@H]3[C@H](OS(=O)(=O)O)C[C@@H]4CC(=O)CC[C@]4(C)[C@H]3CC[C@]12C)c1ccc(Br)s1 [Compound I-114] | > 256 | > 256 | > 256 | – | – | –
CC(NC(=O)C[C@@H](C)[C@H]1CC[C@H]2[C@@H]3[C@H](O)[C@H](O)[C@@H]4C[C@H](O)CC[C@]4(C)[C@H]3CC[C@]12C)c1cccs1 (stereo partly drawn) [Compound I-22] | 8 (≈ 4.03 µg/mL) | 8 (≈ 4.03 µg/mL) | 8 (≈ 4.03 µg/mL) | – | – | –
C[C@H](CC(=O)NCc1ccco1)[C@H]1CC[C@H]2[C@@H]3[C@@H](O)C[C@@H]4C[C@H](O)CC[C@]4(C)[C@H]3CC[C@]12C [Compound I-11] | 64 (≈ 29.3 µg/mL) | 64 (≈ 29.3 µg/mL) | 64 (≈ 29.3 µg/mL) | – | – | –
CCCCCC(NC(=O)C[C@@H](C)[C@H]1CC[C@H]2[C@@H]3C(=O)C[C@@H]4CC(=O)CC[C@]4(C)[C@H]3CC[C@]12C)c1cccs1 (stereo partly drawn) [Compound I-44] | 256 (≈ 138 µg/mL) | > 256 | > 256 | – | – | –
CC(C)C(NC(=O)C[C@@H](C)[C@H]1CC[C@H]2[C@@H]3C[C@H](O)[C@@H]4C[C@H](O)CC[C@]4(C)[C@H]3CC[C@]12C)c1cccs1 (stereo partly drawn) [Compound I-127] | 8 (≈ 4.13 µg/mL) | 8 (≈ 4.13 µg/mL) | 4 (≈ 2.06 µg/mL) | – | – | –
CC(C)C(NC(=O)C[C@@H](C)[C@H]1CC[C@H]2[C@@H]3[C@H](O)[C@H](O)[C@@H]4C[C@H](O)CC[C@]4(C)[C@H]3CC[C@]12C)c1cccs1 (stereo partly drawn) [Compound I-119] | 32 (≈ 17 µg/mL) | 32 (≈ 17 µg/mL) | 32 (≈ 17 µg/mL) | – | – | –
CC[C@@H](NC(=O)C[C@@H](C)[C@H]1CC[C@H]2[C@@H]3[C@H](OC(C)=O)CC4=CC(=O)CC[C@]4(C)[C@H]3CC[C@]12C)c1ccc(Cl)s1 [I-157 -1] | 0.5 (≈ 0.287 µg/mL) | 0.5 (≈ 0.287 µg/mL) | 0.25 (≈ 0.144 µg/mL) | – | – | –
CC(C)[C@@H](NC(=O)C[C@@H](C)[C@H]1CC[C@H]2[C@@H]3[C@H](OP(=O)(O)O)C[C@@H]4CC(=O)CC[C@]4(C)[C@H]3CC[C@]12C)c1ccc(Br)s1 [Compound I-194] | 64 (≈ 43.1 µg/mL) | 64 (≈ 43.1 µg/mL) | 64 (≈ 43.1 µg/mL) | – | – | –
CC[C@@H](NC(=O)C[C@@H](C)[C@H]1CC[C@H]2[C@@H]3C(=O)C[C@@H]4C[C@H](OC)CC[C@]4(C)[C@H]3CC[C@]12C)c1ccc(Cl)s1 [Compound I-167] | 256 (≈ 140 µg/mL) | 128 (≈ 70.2 µg/mL) | 128 (≈ 70.2 µg/mL) | – | – | –
CC(C)[C@H](NC(=O)C[C@@H](C)[C@H]1CC[C@H]2[C@@H]3C(=O)C[C@@H]4CC(=O)CC[C@]4(C)[C@H]3CC[C@]12C)c1ccc(S(=O)(=O)O)s1 [Compound I-82] | > 256 | 256 (≈ 152 µg/mL) | > 256 | – | – | –
CC[C@@H](NC(=O)C[C@@H](C)[C@H]1CC[C@H]2[C@@H]3C(=O)C[C@@H]4CC(=O)CC[C@]4(C)[C@H]3CC[C@]12C)c1ccccc1 [Compound I-60] | – | – | – | 2 (≈ 0.983 µg/mL) | 2 (≈ 0.983 µg/mL) | 2 (≈ 0.983 µg/mL)
CC(C)[C@@H](NC(=O)C[C@@H](C)[C@H]1CC[C@H]2[C@@H]3C(=O)C[C@@H]4C[C@H](O)CC[C@]4(C)[C@H]3CC[C@]12C)c1ccc(Cl)s1 [Compound I-150] | 2 (≈ 1.1 µg/mL) | 2 (≈ 1.1 µg/mL) | 1 (≈ 0.548 µg/mL) | – | – | –
CO[C@@H]1CC[C@@]2(C)[C@H](CC(=O)[C@@H]3[C@@H]2CC[C@]2(C)[C@@H]([C@H](C)CC(=O)N[C@@H](c4ccc(Cl)s4)C(C)C)CC[C@@H]32)C1 [Compound I-168] | 128 (≈ 72 µg/mL) | 128 (≈ 72 µg/mL) | 128 (≈ 72 µg/mL) | – | – | –
CCC(NC(=O)C[C@@H](C)[C@H]1CC[C@H]2[C@@H]3[C@H](O)C[C@@H]4CC(=O)CC[C@]4(C)[C@H]3CC[C@]12C)c1ccc(S(=O)(=O)O)s1 (stereo partly drawn) [Compound I-92] | 16 (≈ 9.28 µg/mL) | 32 (≈ 18.6 µg/mL) | 16 (≈ 9.28 µg/mL) | – | – | –
CC(C)C(NC(=O)C[C@@H](C)[C@H]1CC[C@H]2[C@@H]3C(=O)C[C@@H]4CC(=O)CC[C@]4(C)[C@H]3CC[C@]12C)c1ccc(Cl)s1 (stereo partly drawn) [Compound I-75] | 0.5 (≈ 0.273 µg/mL) | 0.5 (≈ 0.273 µg/mL) | 0.5 (≈ 0.273 µg/mL) | – | – | –
CC(C)[C@@H](NC(=O)C[C@@H](C)[C@H]1CC[C@H]2[C@@H]3[C@@H](O)C[C@@H]4CC(=O)CC[C@]4(C)[C@H]3CC[C@]12C)c1ccc(Cl)s1 [Compound I-164] | 32 (≈ 17.5 µg/mL) | 32 (≈ 17.5 µg/mL) | 32 (≈ 17.5 µg/mL) | – | – | –
CC[C@H](NC(=O)C[C@@H](C)[C@H]1CC[C@H]2[C@@H]3C(=O)C[C@@H]4CC(=O)CC[C@]4(C)[C@H]3CC[C@]12C)c1ccc(Cl)s1 [Compound I-69] | 8 (≈ 4.26 µg/mL) | 16 (≈ 8.52 µg/mL) | 8 (≈ 4.26 µg/mL) | – | – | –
